Reference: patent US9474759B2 (priority 2011, dated 2016)
Like-named read-outs stand apart in the source and are kept apart here.

What was measured:
[1] = test system: FIPV-1146; assay: FIPV-1146 replication in CRFK cells, TCID50 method; type: cell-based, feline coronavirus; settings: MOI 0.05, mean ± SEM
Description: (§1) Crandell Rees feline kidney (CRFK) cells were maintained in minimal essential medium containing 2-5% fetal bovine serum and antibiotics (chlortetracycline [25 μg/ml], penicillin [250 U/ml], and streptomycin [250 μg/ml]). FIPV WSU 79-1146 and FECV WSU 79-1683 strains are the prototypes of serotype II FIPV or FECV, respectively, and were purchased from ATCC (Manassas, Va.).
(§2) The cells were further incubated in the presence of each compound for 1 hr at 37° C. Then […] or FECV-1683 was inoculated to the cells at a multiplicity of infection (MOI) of 0.05 or 5.
(§3) b. TCID50 Method. A standard TCID50 method with the 10-fold dilution of each sample was used for virus titration.

[2] = test system: FIPV-1146; assay: Combination treatment of CA074-Me and GC373 on FIPV-1146 replication, MacSynergy II; type: cell-based, feline coronavirus; settings: CA074-Me alone at 1, FIPV-infected CRFK cells
Description: The CRFK cells were incubated with GC373 (0.02˜0.2 μM), CA074-Me (0.5˜5 μM), or the combinations of GC373 (0.02˜0.2 μM) and CA074-Me (0.5˜5 μM) for 1 hr at 37° C. prior to inoculation of FIPV-1146 at an MOI of 0.05. After 24 hrs of incubation, virus replication was assessed with virus titration using the TCID50 method. Drug-drug interactions were analyzed by the three-dimensional model of Prichard and Shipman, using the MacSynergy II software at 95% confidence limits. Theoretical additive interactions were calculated from the dose-response curve for each compound individually, and the calculated additive surface was subtracted from the experimentally determined dose-response surface to give regions of synergistic or antagonistic interactions. The resulting surface appears as horizontal plane at 0% of synergy if the interactions of two compounds are additive. Any peak above or below this plane indicates synergy or antagonism, respectively.

[3] = test system: FECV-1683; assay: FECV-1683 replication in CRFK cells, TCID50 method; type: cell-based, feline coronavirus; settings: MOI 0.05, mean ± SEM
Description: as §1, §2, §3

[4] = test system: norovirus (cell-based replicon system); assay: Cell-based replicon system of norovirus (Example 4)
[5] = biological target: Norwalk virus 3CL protease (NV3CL protease), recombinant (Norovirus, UniProt Q83883); assay: Recombinant NV protease FRET inhibition assay (Edans-[…]-Dabcyl substrate), FIG. 4; type: biochemical; settings: 2.5 μM enzyme, 300 nM Edans-EPDFHLQGPEDLAK-Dabcyl, 30 min incubation, 30° C., pH 8.0
Sequence of Norwalk virus 3CL protease (NV3CL protease), recombinant (Q83883 1101-1281): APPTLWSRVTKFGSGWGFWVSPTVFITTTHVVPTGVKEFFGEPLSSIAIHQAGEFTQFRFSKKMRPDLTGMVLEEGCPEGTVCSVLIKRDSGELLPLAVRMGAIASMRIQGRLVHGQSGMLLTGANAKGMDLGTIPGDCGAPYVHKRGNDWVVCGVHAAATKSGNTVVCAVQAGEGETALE
Description: (§4) After a 30 minute incubation period, 5 μL of 12 μM Edans-[…]-Dabcyl (SEQ ID NO:1) substrate in DMSO was then added and the increase in fluorescence was monitored for 30 minutes at an excitation and emission wavelength of 360 and 460 nm, respectively. Using a HORIBA FluoroMax 4 spectrofluorometer. Hydrolysis curves were linear. The final enzyme and substrate concentrations were 2.5 μM and 300 nM, respectively. […] Furthermore, the nature of the cap was also important (compare, for example, inhibitors A and D).

[6] = test system: murine norovirus-1 (MNV-1); assay: MNV-1 replication in RAW267.4 cells, TCID50 (Example 1); type: cell-based; settings: Norwalk virus, MOI 2, TCID50 assay, read-out: ED50, replication of murine norovirus (MNV)
[7] = test system: norovirus (NV replicon-harboring HG23 cells); assay: NV replicon-harboring cells (HG23), NV genome levels by qRT-PCR (Example 1); type: cell-based, Norwalk virus; settings: read-out: ED50, effective dose that inhibits 50% of norovirus replication, NV genome levels at 24 hrs post-treatment
[8] = biological target: Norwalk virus 3CL protease (Norovirus, UniProt Q83883); assay: Recombinant NV protease fluorogenic substrate inhibition assay (Example 1); type: biochemical; settings: 30 min pre-incubation, 30° C., pH 8.0
Sequence of Norwalk virus 3CL protease (Q83883 1101-1281): as above
Description: as §4

[9] = test system: HG23 cells; settings: human
[10] = test system: MNV-1; assay: Cell culture system, MNV-1 replication in RAW267.4 cells (Example 3); type: cell-based, murine norovirus; settings: at concentrations up to 50 μM or 100 μM
[11] = test system: MHV; assay: Cell culture system, MHV replication in CCL-9.1 cells (Example 3); type: cell-based, mouse hepatitis virus; settings: at concentrations up to 50 μM or 100 μM
[12] = test system: coronavirus proteases (TGEV and SARS-CoV); type: biochemical; settings: optimized FRET assay
[13] = test system: FCV; assay: Cell culture system, FCV replication in CRFK cells (Example 3); type: cell-based, feline calicivirus; settings: at concentrations up to 50 μM or 100 μM
[14] = test system: cells used for virus replication; assay: Non-specific cytotoxicity in the cells used for virus replication (Example 3); type: cell-based
Description: Confluent cells grown in 96-well plates were treated with various concentrations (1 to 500 μM) of each compound for 72 h. Cell cytotoxicity was measured by a CytoTox 96® nonradioactive cytotoxicity assay kit (Promega, Madison, Wis.) and crystal violet staining. The In vitro therapeutic index was calculated by dividing the TD50 by the IC50.

[15] = 24 hr post infection, read-out: Inhibition [ED50 (μM)] against FIPV-1146, 24 hrs
[16] = 48 hr post infection, read-out: Inhibition [ED50 (μM)] against FIPV-1146, 48 hrs
[17] = 24 hr post infection, read-out: Inhibition [ED50 (μM)] against FECV-1683, 24 hrs
[18] = 48 hr post infection, read-out: Inhibition [ED50 (μM)] against FECV-1683, 48 hrs

Structure (SMILES): CCCNC(=O)[C@H]1O[C@@H]1C(=O)N[C@H](C(=O)N1CCC[C@H]1C(=O)OC)[C@@H](C)CC (relative stereo) [CA074-Me, L-3-trans-((propylcarbamyl)oxirane-2-Carbonyl)-L-isoleucyl-L-proline methyl ester, reference compound]
- EC50 [1, 15]: 2.5 ± 1.4 µM
- EC50 [1, 16]: > 10 µM
- reduction of virus titers [2]: 0.5 log10
- EC50 [3, 17]: 4 ± 0.71 µM
- EC50 [3, 18]: > 10 µM

Structure (SMILES): CCOC(=O)[C@H]1O[C@@H]1C(=O)N[C@@H](CC(C)C)C(=O)NCCC(C)C (relative stereo) [Inhibitor E64d, (2S,3S)-trans-epoxysuccinyl-L-leucylamido-3-methylbutane ethyl ester, reference compound]
- EC50 [1, 15]: 1.45 ± 0.49 µM
- EC50 [1, 16]: > 10 µM
- EC50 [3, 17]: 2.3 ± 0.28 µM
- EC50 [3, 18]: > 10 µM

Structure (SMILES): CC(C)C[C@H](NC(=O)OCc1ccccc1)C(=O)N[C@@H](CC1CCNC1=O)C(O)C(=O)NC(C)C (stereo partly drawn) [Inhibitor 5a]
- anti-norovirus activity in the cell-based replicon system (in words) [4]: noteworthy activity

Structure (SMILES): CC(C)NC(=O)C(O)[C@H](CC1CCNC1=O)NC(=O)[C@H](Cc1ccccc1)NC(=O)OCc1ccccc1 (stereo partly drawn) [Inhibitor 5h]
- anti-norovirus activity in the cell-based replicon system (in words) [4]: noteworthy activity

Structure (SMILES): CC(C)C[C@H](NC(=O)OCc1ccccc1)C(=O)N[C@@H](CC1CCNC1=O)C(O)c1nccs1 (stereo partly drawn) [Inhibitor 7b]
- anti-norovirus activity in the cell-based replicon system (in words) [4]: noteworthy activity

Structure (SMILES): CC(C)C[C@H](NC(=O)OCc1ccccc1)C(=O)N[C@@H](CC1CCNC1=O)C(=O)c1ncco1 (stereo partly drawn) [Inhibitor 8a]
- EC50 ([4]; read-out: ED50 in the cell-based replicon system): 900 nM

Structure (SMILES): CC(C)C[C@H](NC(=O)N1CCOCC1)C(=O)N[C@H](C=O)CC1CCNC1=O (stereo partly drawn) [Inhibitor A]
- IC50 [5]: 7200 nM

Structure (SMILES): CC(C)C[C@H](NC(=O)CNC(=O)OCc1ccccc1)C(=O)N[C@H](C=O)CC1CCNC1=O (stereo partly drawn) [Inhibitor E]
- EC50 [6]: 20.3 µM
- IC50 [5]: 1450 nM
- EC50 [7]: 7.8 µM
- inhibitory activity against Norwalk virus 3CL protease (in words) [8]: improved potency, albeit not dramatically
- TD50, median toxic dose [9]: > 320 µM

Structure (SMILES): CCCC[C@H](NC(=O)CNC(=O)OCc1ccccc1)C(=O)N[C@H](C=O)CC1CCNC1=O (stereo partly drawn) [Inhibitor G]
- IC50 [5]: 870 nM
- inhibitory activity against Norwalk virus 3CL protease (in words) [8]: sub-micromolar inhibitor

Structure (SMILES): CCC(C)[C@H](NC(=O)CNC(=O)OCc1ccccc1)C(=O)N[C@H](C=O)CC1CCNC1=O (stereo partly drawn) [Inhibitor I]
- inhibitory activity against Norwalk virus 3CL protease (in words) [8]: detrimental to inhibitory activity

Structure (SMILES): CCOC(=O)/C=C/[C@H](C[C@@H]1CCNC1=O)NC(=O)[C@@H](CC(=O)[C@@H](NC(=O)c1cc(C)on1)C(C)C)Cc1ccc(F)cc1 [Rupintrivir]
- inhibition of replication of MNV-1 (in words) [10]: did not inhibit the replication
- inhibition of replication of MHV (in words) [11]: did not inhibit the replication
- activity against the coronavirus proteases compared to GC373 and GC376 (in words) [12]: substantially less effective
- inhibition of replication of FCV (in words) [13]: did not inhibit the replication
- non-specific cytotoxicity: none shown up to this concentration [14]: > 500 µM
